Data set [1] is described as follows: Weight gain of rats during treatment. It counts as in vivo, rat. The note with it: daily i.p. treatment. The method, then: (§1) Behavioral testing was applied to a cohort of 12 rats. Following 7 days of daily i.p. treatment with i) vehicle (10% DMSO, 10% Tween 80, 80% saline; 2 mL/kg); or solubilized ii) the compound of Example 2 (0.025 mg/kg) or iii) the compound of Example 2 (0.1 mg/kg), rats were exposed to the modified forced swim test (FST). Briefly, FST exposure (15 min exposure, 25° C. tap water, 30 cm water depth) was performed 18-24 h after the previous i.p. treatment, after which rats were returned to their home cages to dry for approximately 2-3 h, then given daily i.p. treatment as before. FST testing was performed one day later (5 min test, 25° C. tap water, 30 cm water depth) with behaviors digitally recorded for subsequent analysis of immobility by a trained reviewer, blinded to treatment groups. Rats were returned to home cages and monitored without treatment for 72 h. […] Animals were then evaluated for locomotor activity in an open field (60 cm square) using automated tracking software (MedAssociates).
(§2) Rats were exposed to a 15 min session of forced swimming in 25° C. water (20 cm diameter cylinder, 30 cm water depth). […] After 1 day, rats were tested for immobility time during 5-min FST sessions which were videotaped and scored by a trained observer blinded to treatment groups.

In data set [2] the test system is rats. Kind of data set: Forced swim test. It counts as in vivo, rat. The note with it: 0.1 mg/kg i.p., against vehicle-treated controls, 5-min FST session. The method, then:
as §1, §2

Data set [3] is described as follows: Intravenous pharmacokinetics and brain distribution assay. It counts as in vivo, male Sprague Dawley rats. The note with it: single i.v. dose 1 mg/kg. The protocol:
Healthy male Sprague Dawley rats (8-12 weeks old) weighing between 200 to 250 g were procured from In vivo Bioscience, Bengluru, India. Three rats were housed in each cage. Temperature and humidity were maintained at 22±3° C. and 40-70%, respectively and illumination was controlled to give a sequence of 12 h light and 12 h dark cycle. Temperature and humidity were recorded by auto-controlled data logger system. All the animals were provided laboratory rodent diet (Vetcare India Pvt. Ltd, Bengaluru) ad libitum. Reverse osmosis water treated with ultraviolet light was provided ad libitum.
Sprague Dawley rats were intravenously administered a solution formulation of the compound of Example 2 prepared in 10% DMSO, 10% Tween 80, 80% normal saline. The blood samples were collected from a set of three rats at each time point in labeled micro centrifuge tube containing K2EDTA solution as anticoagulant. Plasma samples were separated by centrifugation of whole blood and stored at below −70° C. until bioanalysis. After collection of blood samples at each time point animals were humanely euthanized by CO2 and the brain was collected. Brain samples were homogenized using ice-cold phosphate buffer saline (pH=7.4) and homogenates were stored at below −70° C. until analysis. Total homogenate volume was three times the brain weight. All samples were processed for analysis by protein precipitation using acetonitrile and analyzed with fit-for-purpose LC-MS/MS method (LLOQ=1.01 ng/mL in plasma and brain). Pharmacokinetic parameters were calculated using the non-compartmental analysis tool of Phoenix WinNonlin® (Version 6.3).
The compound of Example 2 (5.89 mg) was added in a labeled bottle, followed by DMSO (2.945 mL), Tween 80 (2.945 mL), and normal saline (23.50 mL), and the resulting mixture was mixed by vortexing after each addition. The solution formulation was sonicated for 2 minutes to obtain a clear solution. After preparation of formulation, 200 μL samples were aliquoted for analysis. […] All formulations were freshly prepared prior to dosing. […]
Concentrations of the compound of Example 2 in rat plasma and brain samples were analyzed with fit-for-purpose by LC-MS/MS method. […] Following centrifugation, 100 µL of clear supernatant was transferred to a 96-well plate and analyzed using LC-MS/MS.
Non-Compartmental-Analysis module in Phoenix WinNonlin® (Version 6.3) was used to assess the pharmacokinetic parameters. […] The areas under the concentration time curve (AUClast and AUCinf) were calculated by linear trapezoidal rule. The terminal elimination rate constant, ke, was determined by regression analysis of the linear terminal portion of the log plasma concentration-time curve. […]

Here are results for one molecule from patent US20170349540A1, “HISTONE DEACETYLASE INHIBITORS” (The General Hospital Corporation, priority 2014, published 2017).

As usually defined, the clearance is the rate of elimination divided by the concentration. Read a low clearance as a low capacity for elimination. In general, half-life refers to how long it takes for the measured level to halve. As to `CN(Cc1ccc(/C=C/C(=O)Nc2ccccc2N)cc1)CC12CC3CC(CC(C3)C1)C2` [Example 2, (E)-3-(4-((((3r,5r,7r)-adamantan-1-ylmethyl)(methyl)amino)methyl)phenyl)-N-(2-aminophenyl)acrylamide], the “average weight gain of tested rats” value in data set [1] was “not impacted”. For the same molecule, the “decrease in FST immobility scores” value in data set [2] amounted to 17%. Also, the Kp in data set [3] (male, Sprague Dawley, rat, brain/plasma, iv, read-out: brain-to-plasma exposure ratio) was found to be 8.35. In data set [3] (male, Sprague Dawley, rat, plasma, iv), this molecule displayed a clearance of 79 mL/min/kg. For the same molecule, the half-life in data set [3] (male, Sprague Dawley, rat, plasma, iv, read-out: elimination half-life (converted)) was 54.6 min. The “Vss relative to the normal volume of total body water (0.7 L/kg)” value in data set [3] came to 6 fold.
